Results as given in US20230146455A1, “TREATMENT OF INFLAMMATORY DISEASES WITH PEPTIDES AND PHARMACEUTICAL COMPOSITIONS” (Yuyu Pharma, Inc., priority 2020, published 2023).
Where “and” joins values, the source holds several entries; their conditions need not be identical. Identical values can stand only once. Where a SMILES comes first, the peptide text is derived from it. [ ]: non-standard residue; d: D form. Hyp = O=C(O)[C@@H]1C[C@@H](O)CN1

Test system: IL-17A
Assay: Example 9 Luminex, LPS hPBMCs: IL-17A
Type: cell-based, human
Protocol: Treatment Human PBMCs were pretreated with YY-101, YDE-011 and YDE-043 or reference compound; Xiidra® at various concentration (ranging from 1 nM to 100 uM) for 2 h before stimulation. An equal volume of 0.5% DMSO was used as a vehicle control. Then, the cells were treated with LPS at 5 ug/ml. The supernatants from treated cells were harvested at 24 h and placed in a 96 well for Luminex cytokine & chemokine profiling using a Luminex 200 multiplex assay (Luminex; R&D system, USA).
The main study arm with triplicate wells per group in a 24-well plate: • 1. Blank • 2. PBMC: 0.5% DMSO • 3. PBMC+LPS (5 ug/ml) • 4. PBMC+YY-101 100 uM • 5. PBMC+YY-101 10 uM • 6. PBMC+YY-101 1 uM • 7. PBMC+YY-101 0.1 uM • 8. PBMC+YY-101 0.01 uM • 9. PBMC+LPS (5 ug/ml)+Xiidra®100 uM • 10. PBMC+LPS (5 ug/ml)+Xiidra® 10 uM • 11. PBMC+LPS (5 ug/ml)+Xiidra® 1 uM • 12. PBMC+LPS (5 ug/ml)+Xiidra®0.1 uM • 13. PBMC+LPS (5 ug/ml)+Xiidra®0.01 uM • 14. PBMC+LPS (5 ug/ml)+Xiidra®0.001 uM • 15. PBMC+LPS (5 ug/ml)+YY-101 100 uM • 16. PBMC+LPS (5 ug/ml)+YY-101 10 uM • 17. PBMC+LPS (5 ug/ml)+YY-101 1 uM • 18. PBMC+LPS (5 ug/ml)+YY-101 0.1 uM • 19. PBMC+LPS (5 ug/ml)+YY-101 0.01 uM • 20. PBMC+LPS (5 ug/ml)+YY-101 0.001 uM • 21. PBMC+LPS (5 ug/ml)+YDE-011 100 uM • 22. PBMC+LPS (5 ug/ml)+YDE-011 10 uM • 23. PBMC+LPS (5 ug/ml)+YDE-011 1 uM • 24. PBMC+LPS (5 ug/ml)+YDE-011 0.1 uM • 25. PBMC+LPS (5 ug/ml)+YDE-011 0.01 uM • 26. PBMC+LPS (5 ug/ml)+YDE-011 0.001 uM • 27. PBMC+LPS (5 ug/ml)+YDE-043 100 uM • 28. PBMC+LPS (5 ug/ml)+YDE-043 10 uM • 29. PBMC+LPS (5 ug/ml)+YDE-043 1 uM • 30. PBMC+LPS (5 ug/ml)+YDE-043 0.1 uM • 31. PBMC+LPS (5 ug/ml)+YDE-043 0.01 uM • 32. PBMC+LPS (5 ug/ml)+YDE-043 0.001 uM
Multiplex assay was used to measure 30 cytokines and chemokines. The 1:2, 1:10 and 1:200 diluted cell supernatant and serial dilution of the standard were dispensed into a 96 well plate at 50 ul/well. Then, the pre-mixed cocktail of antibody-coated magnetic beads was dispensed at 50 ul/well and incubated at room temperature for 2 h in a horizontal orbital microplate shaker at 800±500 rpm. The beads were washed using a magnetic device to prevent loss. The biotin-antibody was dispensed in 50 ul of each well and incubated at room temperature for 1 h in a shaker at 800±500 rpm. After washing, streptavidin-PE was added at 50 ul/well and incubated at room temperature for 30 min in a shaker under the same conditions. Finally, after washing, wash buffer (100 ul/well) was added to the plate and incubated in a shaker for 2 min. The Luminex™ 200 setting were set according to the manufacturer's protocol. The data was calculated with a standard five-parameter logistic nonlinear regression analysis of the data (xPonent software 4.2, USA). The levels of cytokine/chemokine are normalized to the live cell counts (1×10^5 cells/mL) and presented as concentrations per mL (pg/mL or ng/mL).

[1] = PBMC + LPS(5 ug/ml) + test article 0.001 uM, Mean
[2] = PBMC + LPS(5 ug/ml) + test article 0.001 uM, single replicates (1st, 2nd, 3rd)
[3] = PBMC + LPS(5 ug/ml) + test article 0.01 uM, Mean
[4] = PBMC + LPS(5 ug/ml) + test article 0.01 uM, single replicates (1st, 2nd, 3rd)
[5] = PBMC + LPS(5 ug/ml) + test article 0.1 uM, Mean
[6] = PBMC + LPS(5 ug/ml) + test article 0.1 uM, single replicates (1st, 2nd, 3rd)
[7] = PBMC + LPS(5 ug/ml) + test article 1 uM, Mean
[8] = PBMC + LPS(5 ug/ml) + test article 1 uM, single replicates (1st, 2nd, 3rd)
[9] = PBMC + LPS(5 ug/ml) + test article 10 uM, Mean
[10] = PBMC + LPS(5 ug/ml) + test article 10 uM, single replicates (1st, 2nd, 3rd)
[11] = PBMC + LPS(5 ug/ml) + test article 100 uM, Mean
[12] = PBMC + LPS(5 ug/ml) + test article 100 uM, single replicates (1st, 2nd, 3rd)

Structure (SMILES) | Concentration, IL-17A [1] [pg/mL] | MFI, Bead name: IL-17A [1] | conc/live cell, IL-17A [1] [pg/10^5] | Concentration, IL-17A [2] | MFI, Bead name: IL-17A [2] | conc/live cell, IL-17A [2] | Concentration, IL-17A [3] [pg/mL] | MFI, Bead name: IL-17A [3] | conc/live cell, IL-17A [3] [pg/10^5] | Concentration, IL-17A [4] | MFI, Bead name: IL-17A [4] | conc/live cell, IL-17A [4] | Concentration, IL-17A [5] [pg/mL] | MFI, Bead name: IL-17A [5] | conc/live cell, IL-17A [5] [pg/10^5] | Concentration, IL-17A [6] | MFI, Bead name: IL-17A [6] | conc/live cell, IL-17A [6] | Concentration, IL-17A [7] [pg/mL] | MFI, Bead name: IL-17A [7] | other results
CC(C)C[C@H](NC(=O)CNC(=O)[C@H](CC(C)C)NC(=O)[C@H](CCC(N)=O)NC(=O)CNC(=O)[C@@H]1C[C@@H](O)CN1)C(=O)N[C@@H](C)C(=O)NCC(=O)N1CCC[C@H]1C(=O)N[C@@H](CCCCN)C(=O)O [YDE-011] (H-[Hyp]GQLGLAGPK-OH) | 3.3 | 1.8 | 0.6 | 4.3 pg/ml and 2.7 pg/ml (2×) | 2.5 and 1.5 (2×) | 1.0 pg/10^5 and 0.5 pg/10^5 (2×) | 2.1 | 1.2 | 0.4 | 1.0 pg/ml (2×) and 4.3 pg/ml | 0.5 (2×) and 2.5 | 0.2 pg/10^5 (2×) and 0.9 pg/10^5 | 1.6 | 0.8 | 0.3 | 2.7 pg/ml and 1.0 pg/ml (2×) | 1.5 and 0.5 (2×) | 0.4 pg/10^5 and 0.2 pg/10^5 (2×) | 3.8 | 2.2 | conc/live cell, IL-17A [7]: 0.8 pg/10^5; Concentration, IL-17A [8]: 4.3 pg/ml (2×) and 2.7 pg/ml; MFI, Bead name: IL-17A [8]: 2.5 (2×) and 1.5; conc/live cell, IL-17A [8]: 0.8 pg/10^5 and 0.9 pg/10^5 and 0.6 pg/10^5; Concentration, IL-17A [9]: 2.7 pg/mL; MFI, Bead name: IL-17A [9]: 0.8; conc/live cell, IL-17A [9]: 0.3 pg/10^5; Concentration, IL-17A [10]: 2.7 pg/mL; MFI, Bead name: IL-17A [10]: 1.5 (2×) and −0.5; conc/live cell, IL-17A [10]: 0.5 pg/10^5 (2×) and 0.0 pg/10^5; Concentration, IL-17A [11]: 1.0 pg/mL; MFI, Bead name: IL-17A [11]: 0.2; conc/live cell, IL-17A [11]: 0.1 pg/10^5; Concentration, IL-17A [12]: 1.0 pg/mL; MFI, Bead name: IL-17A [12]: 0.5 (2×) and −0.5; conc/live cell, IL-17A [12]: 0.2 pg/10^5 (2×) and 0.0 pg/10^5
CC(C)C[C@H](NC(=O)[C@H](CCC(N)=O)NC(=O)CNC(=O)[C@@H]1C[C@@H](O)CN1)C(=O)NCC(=O)O [YDE-043] (H-[Hyp]GQLG-OH; N-terminus and C-terminus assumed) | 1.0 | 0.2 | 0.2 | 1.0 pg/mL | 0.5 (2×) and −0.5 | 0.2 pg/10^5 (2×) and 0.0 pg/10^5 | 1.0 | 0.5 | 0.2 | 1.0 pg/mL | 0.5 | 0.2 pg/10^5 | 1.6 | 0.8 | 0.3 | 2.7 pg/ml and 1.0 pg/ml (2×) | 1.5 and 0.5 (2×) | 0.5 pg/10^5 and 0.2 pg/10^5 (2×) | 1.9 | 0.5 | conc/live cell, IL-17A [7]: 0.2 pg/10^5; Concentration, IL-17A [8]: 1.0 pg/mL and 2.7 pg/mL; MFI, Bead name: IL-17A [8]: 0.5 and −0.5 and 1.5; conc/live cell, IL-17A [8]: 0.2 pg/10^5 and 0.0 pg/10^5 and 0.5 pg/10^5; Concentration, IL-17A [9]: 1.3 pg/mL; MFI, Bead name: IL-17A [9]: 0.7; conc/live cell, IL-17A [9]: 0.2 pg/10^5; Concentration, IL-17A [10]: 0.1 pg/mL and 2.7 pg/mL and 1.0 pg/mL; MFI, Bead name: IL-17A [10]: 0.0 and 1.5 and 0.5; conc/live cell, IL-17A [10]: 0.0 pg/10^5 and 0.5 pg/10^5 and 0.2 pg/10^5; MFI, Bead name: IL-17A [11]: −0.5; conc/live cell, IL-17A [11]: 0.0 pg/10^5; MFI, Bead name: IL-17A [12]: −0.5; conc/live cell, IL-17A [12]: 0.0 pg/10^5
